Experimental data taken from US20070077305A1, “Biocompatible polymeric matrix and preparation thereof” (priority 2005, published 2007).

Experiment: In vitro diffusion test of film using Franz apparatus
Type: in vitro ADME
Details: after 24 h; from chitosan succinic acid film (DS about 60-80%); phosphate buffer pH 7.2, 32° C.
Method: The functionalized chitosan polymeric matrix was synthesized as previously described with a degree of substitution of about 60-80%. 500 mg of caffeine was added in 100 mL functionalized chitosan polymeric matrix solution (2.5%) and stirred during […]. Films were produce by applying 20 mL of the solution evenly onto Petri dishes and dried at room temperature for 24-48 h.
The film produced was subjected to an in vitro diffusion test using Franz apparatus, with an exposed surface area of 3.9 cm^2. Polydimethylsiloxan (Silastic®) membranes have been used as barrier and the receptor compartment (dissolution phase) was 1 L of 50 mM phosphate buffer (pH 7.2) at 32° C. At predetermined time intervals, the samples (5 mL aliquots) were analyzed at 272 nm for the determination of caffeine permeation.

Cn1c(=O)c2c(ncn2C)n(C)c1=O [caffeine]
amount of caffeine in the receptor compartment: 405 μg/cm^2
